Values quoted from earlier work in patent US5278146A, “CRF analogs” (The Salk Institute for Biological Studies, priority 1992, dated 1994).
Where no end group is shown, it is not given here.

What was measured:
[1] = system: ACTH and β-endorphin-like activities (β-END-LI); conditions: in vitro and in vivo; cited from earlier work
[2] = injected peripherally, e.g. intravenously; cited from earlier work

rCRF: rat CRF, homologous hentetracontapeptide of U.S. Pat. No. 4,489,163; same formula as human CRF (SEEPPISLDLTFHLLREVLEMARAEQLAQQAHSNRKLMEII; ends and bridges not checked; UniProt P01143 145-185, looked up)
Stimulation of ACTH and β-endorphin secretion / β-END-LI (background) [1]: stimulate ACTH and β-endorphin-like activities | Lowering of blood pressure (background) [2]: substantially lower blood pressure
